Results on nine compounds are retold here after patent US20080194524A1, “Compounds For the Inhibition of Undesired Cell Proliferation and Use Thereof” (JERINI AG, priority 2003, published 2008).

This assay concerns the target hPin1 (Protein interacting with NIMA (-kinase)) (Homo sapiens, UniProt Q13526). The experiment in a line: protease-coupled PPIase assay, hPin1. In kind it is biochemical.
Setting [1] is: hPin1 6 nM, substrate Ac-Ala-Ala-Ser(PO3H2)-Pro-Arg-pNA, trypsin, 35 mM HEPES pH 7.8, 6° C., read-out: Specificity of the inhibition with rotamases, Target T-1 (IC50 class).

Where two headings read alike, the source gives them in different places. Where a SMILES comes first, the peptide text is derived from it. [ ]: non-standard residue; d: D form. The star is where a group is joined. 2Nal = N[C@@H](Cc1ccc2ccccc2c1)C(=O)O; Bta = N[C@@H](Cc1csc2ccccc12)C(=O)O; Benzyl(4-Cl) = Clc1ccc(C*)cc1; Pip = O=C(O)[C@@H]1CCCCN1; CH2PO3H2 = O=P(O)(O)C*; Mpa = O=C(O)CCS

hPin1 (Protein interacting with NIMA (-kinase)), sequence (Q13526 whole entry): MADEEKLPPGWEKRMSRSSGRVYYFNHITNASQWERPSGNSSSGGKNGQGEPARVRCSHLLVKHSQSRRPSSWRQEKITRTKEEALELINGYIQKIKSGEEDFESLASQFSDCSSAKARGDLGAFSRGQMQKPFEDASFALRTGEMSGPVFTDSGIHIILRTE

Broadly, the IC50 is the concentration at which inhibition is half-maximal. On to `CNC(=O)CC(SCP(=O)(O)O)C(=O)N1CCCC[C@H]1C(=O)N[C@@H](Cc1ccc2ccccc2c1)C(N)=O` (mixture of isomers) [Compound 69, {2-[2-(1-Carbamoyl-2-naphthalen-2-yl-ethylcarbamoyl)-piperidin-1-yl]-1-methylcarbamoylmethyl-2-oxo-ethylsulfanylmethyl}-phosphonic acid], for which the IC50 under setting [1] lay within 1000 to 10000 nM.
Still for that read-out and setting: as for `COc1ccc(NC(=O)CC(SCP(=O)(O)O)C(=O)N2CCCC[C@H]2C(=O)N[C@@H](Cc2ccc3ccccc3c2)C(N)=O)cc1` (mixture of isomers) [Compound 70, {2-[2-(1-Carbamoyl-2-naphthalen-2-yl-ethylcarbamoyl)-piperidin-1-yl]-1-[(4-methoxy-phenyl-carbamoyl)-methyl]-2-oxo-ethylsulfanylmethyl}-phosphonicacid], the figure is under 1000 nM.
Take `CC(=O)N[C@@H](Cc1csc2ccccc12)C(=O)N[C@H](CSCP(=O)(O)O)C(=O)N1CCCC[C@H]1C(=O)N[C@@H](Cc1ccc2ccccc2c1)C(N)=O` (stereo in doubt) [Compound 3, {2-(2-Acetylamino-3-benzo[b]thiophen-3-yl-propionylamino)-3-[2-(1-carbamoyl-2-naphthalen-2-yl-ethylcarbamoyl)-piperidin-1-yl]-3-oxo-propylsulfanylmethyl}-phosphonic acid]: the IC50 was under 1000 nM.
The same measure, in the same setting: for `CC(=O)N1C(=O)SCC1C(=O)N[C@@H](CSCP(=O)(O)O)C(=O)N1CCCC[C@H]1C(=O)N[C@@H](Cc1ccc2ccccc2c1)C(N)=O` (stereo in doubt) [Compound 42, {2-[(3-Acetyl-2-oxo-thiazolidine-4-carbonyl)-amino]-3-[2-(1-carbamoyl-2-naphthalen-2-yl-ethylcarbamoyl)-piperidin-1-yl]-3-oxo-propylsulfanylmethyl}-phosphonic acid] the value was under 1000 nM.
Consider `CC(SCP(=O)(O)O)C(=O)N1CCCC[C@H]1C(=O)N[C@@H](Cc1ccc2ccccc2c1)C(N)=O` (stereo in doubt) [Compound 65, {2-[2-(1-Carbamoyl-2-naphthalen-2-yl-ethylcarbamoyl)-piperidin-1-yl]-1-methyl-2-oxo-ethylsulfanylmethyl}-phosphonicacid], for which the IC50 under setting [1] is 1000 to 10000 nM.
Turning to `CC(=O)N[C@@H](Cc1csc2ccccc12)C(=O)N[C@@H](COCP(=O)(O)O)C(=O)N1CCCC[C@H]1C(=O)N[C@@H](Cc1ccc2ccccc2c1)C(N)=O` [Compound 1, {2-(2-Acetylamino-3-benzo[b]thiophen-3-yl-propionylamino)-3-[2-(1-carbamoyl-2-naphthalen-2-yl-ethylcarbamoyl)-piperidin-1-yl]-3-oxo-propoxymethyl}-phosphonicacid] (Ac-[Bta]S(CH2PO3H2)[Pip][2Nal]-NH2), the IC50 fell in the range of 1000 to 10000 nM.
The compound `CC(=O)N[C@@H](Cc1csc2ccccc12)C(=O)N[C@@H](CSCP(=O)(O)O)C(=O)N1CCCC[C@H]1C(=O)N[C@@H](Cc1ccc2ccccc2c1)C(N)=O` [Compound 2, {2-(2-Acetylamino-3-benzo[b]thiophen-3-yl-propionylamino)-3-[2-(1-carbamoyl-2-naphthalen-2-yl-ethylcarbamoyl)-piperidin-1-yl]-3-oxo-propylsulfanylmethyl}-phosphonic acid] had an IC50 of under 1000 nM.
For `NC(=O)[C@H](Cc1ccc2ccccc2c1)NC(=O)[C@@H]1CCCCN1C(=O)[C@H](COCP(=O)(O)O)NC(=O)OCC1c2ccccc2-c2ccccc21` [Compound 4, [3-[2-(1-Carbamoyl-2-naphthalen-2-yl-ethylcarbamoyl)-piperidin-1-yl]-2-(9H-fluoren-9-ylmethoxycarbonylamino)-3-oxo-propoxymethyl]-phosphonic acid], the IC50 under setting [1] lay in the range of 1000 to 10000 nM.
The same measure, in the same setting: as for `NC(=O)[C@H](Cc1ccc2ccccc2c1)NC(=O)[C@@H]1CCCCN1C(=O)[C@H](CSCP(=O)(O)O)NC(=O)CCSCc1ccc(Cl)cc1` [Compound 5, {3-[2-(1-Carbamoyl-2-naphthalen-2-yl-ethylcarbamoyl)-piperidin-1-yl]-2-[3-(4-chloro-benzylsulfanyl)-propionylamino]-3-oxo-propylsulfanylmethyl}-phosphonicacid] ([Mpa](Benzyl(4-Cl))C(CH2PO3H2)[Pip][2Nal]-NH2), the figure is under 1000 nM.
